{"source": "patent US20060263809A1", "about": "“Method for sensitive measure of low level apoptosis in cells” (The Rgents of The University of California, priority 2005, published 2006)", "key": {"MEFs [1]": {"tested_on": "MEFs", "assay": "Caspase-independent cytochrome c release (CICR) assay, diffuse cytochrome c immunostaining", "assay_type": "cell-based, mouse", "details": "for Diffuse cyt c (%): Act-D 40 nM, QVD 40 μM", "protocol": "Caspase-independent cytochrome c release (CICR) assay. 3×10^4 cells were plated in each well of a Lab-Tek 4 well chamber slide (Nalge Nunc International, Naperville, Ill.) and treated with Act-D (40 nM), DMSO (0.2%), QVD (40 μM), or QVD plus Act-D for 1, 2, or 3 days. QVD (and Act-D+QVD) was replaced each day. At the end of the experiment, cells were washed twice with PBS and fixed with 4% formaldahyde in PBS for 5 minutes at room temperature. The cells were then washed twice with PBS and then incubated in blocking buffer (3% BSA and 0.1% Triton-X in PBS) for 30 min at room temperature. Cells were incubated for 1 hour at room temperature with anti-cytochrome c (Pharmingen, San Jose, Calif.) diluted 1:800 and 15 μg/ml Hoechst 33342 in blocking buffer. Cells were washed 5 times with PBS, and incubated with anti-mouse secondary antibody for 1 hour at room temperature. The cells were washed 5 times with PBS and then mounted in Prolong (Molecular Probes, Eugene, Oreg.).\nCells were scored as apoptotic if cytochrome c appeared diffuse and met the following criteria: 1) presence of diffuse cytochrome c in both the cytoplasm and nucleus; 2) lack of reticulated or punctate staining in the cytoplasm. Typically images were acquired using a 20× objective, and 500-800 cells were scored. For the exact number of cells counted in FIGS. 3A, 4, and 5, see Table 1 below. Nuclei were counted using images of uniformly illuminated Hoechst staining imported into Image J (URL: <http://rsb.info.nih.gov/ij/>)."}, "MEFs [2]": {"tested_on": "MEFs", "assay": "Cell detachment scoring of Act-D-treated cultures with caspase inhibitors", "assay_type": "cell-based, mouse", "details": "Act-D 40 nM, 3 days", "protocol": "MEFs were given Act-D (40 nM in DMSO) or DMSO and either no inhibitor, zVAD (100 μM) or QVD (40 μM). After 3 days, the cells were photographed at 10× magnification.\n(§1) Subconfluent cultures were treated with the caspase inhibitors zVAD or QVD together with actinomycin D (Act-D; 40 nM), which is known to induce cell death […]. Initially, the cultures were simply scored for cell detachment, a late event in the apoptotic response of adherent cells."}, "HMECs": {"tested_on": "HMECs", "assay": "Cell detachment scoring of Act-D-treated cultures with caspase inhibitors", "assay_type": "cell-based, human", "details": "for detachment of cells in the presence of Act-D and caspase inhibitor: Act-D treated", "protocol": "as §1"}, "WI-38 fibroblasts": {"tested_on": "WI-38 fibroblasts", "assay": "Cell detachment scoring of Act-D-treated cultures with caspase inhibitors", "assay_type": "cell-based, human", "details": "for attachment of Act-D treated cells with caspase inhibitor: WI-38 cells", "protocol": "as §1"}, "MEFs [3]": {"tested_on": "MEFs", "assay": "PI exclusion assay (flow cytometry)", "assay_type": "cell-based, mouse", "protocol": "PI exclusion assay. 1×10^5 cells were treated with Act-D (40 nM in DMSO), DMSO (0.2%), QVD (40 μM), or QVD plus Act-D for 1, 2, or 3 days. QVD (and Act-D+QVD) was replaced each day. At the end of the experiment, PI was added to a final concentration of 10 μg/ml. Following 10 min in the incubator, media were collected and the cells were washed with PBS. The PBS was also collected and combined with the media. The remaining cells were trypsinized and then combined with the mix of PBS and media. The cells were centrifuged at 200 g for 10 minutes and resuspended in 300 μl of PBS. The cells were then quantified and analyzed as above (Cotter and Martin, 1996)."}, "MEFs [4]": {"tested_on": "MEFs", "assay": "Sub-G1 peak determination (flow cytometry)", "assay_type": "cell-based, mouse", "protocol": "Cell Death Assays: Sub-G1 peak determination. 1×10^5 cells were treated with Act-D (40 nM in DMSO), DMSO (0.2%), QVD (40 μM), or QVD plus Act-D for 1, 2, or 3 days. QVD (and Act-D+QVD) was replaced each day. At the end of the experiment, media were collected and washed once with PBS. The PBS was also collected and then the cells were trypisized. Trypsinization was stopped by addition of the previously collected and pooled media and PBS. Cells were then collected by centrifugation at 200 g for 10 minutes, resuspended in 70% ethanol and stored at −20° C. overnight. The fixed cells were resuspended in 300 μl of PBS containing 10 μg/ml PI and 0.5 μg/ml RNase A and incubated at room temperature for 1 hour. Cells were quantified by flow cytometery using a FACscan (Becton Dickinson) in FL-3 and analyzed using Cellquest software (BD) (Cotter and Martin, 1996)."}, "MEFs [5]": {"tested_on": "MEFs", "assay": "Mitochondrial membrane potential (TMRE, flow cytometry)", "assay_type": "cell-based, mouse", "protocol": "Mitochondrial Membrane Potential. 1×10^5 cells were treated with Act-D and QVD for 1, 2, or 3 days. QVD (and Act-D+QVD) was replaced each day. At the end of the experiment, media were collected and the cells were washed with PBS. The PBS was collected and combined with the media. Cells were trypsinized and resuspended in medium and PBS, as described above. The cells were spun for 5 min at 200 g and resuspended in fresh media containing TMRE (50 nM) and allowed to incubate at 37° C. for 30 minutes. Fluorescence was quantified in FL-2 using a FACscan and analyzed with Cellquest software (Waterhouse et al., 2001)."}, "HeLa cells": {"tested_on": "HeLa cells", "assay": "Cytochrome c immunocytochemistry of HeLa cells treated with ActD and ZVAD-fmk", "assay_type": "cell-based", "details": "24 h after treatment", "protocol": "FIGS. 6A and 61B are photographs of the cells after the apoptosis assay. FIG. 6A. Immunocytochemistry. HeLa cells were treated with vehicle (DMSO Control), actinomycin D (ActD) to induce apoptosis, or ActD plus the caspase inhibitor ZVAD-fmk. 24 h later, cells were immunostained for cytochrome c (green) and counterstained with DAPI (blue) to identify nuclei. In control cells, cytochrome c is evident as punctate mitochondrial staining. […] FIG. 6B. Quantification. The % cells with diffuse cytochrome c staining (x axis) were scored 24 h after treatment with vehicle (Contr), ActD or ActD plus ZVAD (ZV). Cytochrome c staining in the presence of ZVAD allows apoptotic cells to accumulate over 24 h."}, "HCA-2 fibroblasts": {"tested_on": "HCA-2 fibroblasts", "assay": "Growth curves in media with QVD", "assay_type": "cell-based", "details": "0.1% DMSO + 40 μM QVD", "protocol": "(§2) HCA-2 fibroblasts and HMEC were grown in normal growth media (DMEM, MEGM) or normal growth media supplemented with 0.1% DMSO (DMSO) or 0.1% DMSO+40 μM QVD (QVD). HCA-2 growth curves were averaged triplicates (HCA-2) or duplicates (HMEC) and error bars (HCA-2) are SD."}, "HMEC": {"tested_on": "HMEC", "assay": "Growth curves in media with QVD", "assay_type": "cell-based, human", "details": "0.1% DMSO + 40 μM QVD", "protocol": "as §2"}, "[6]": {"details": "cited from earlier work"}, "[7]": {"details": "MEFs treated with Act-D for one day"}}, "note": "“Also recorded” adds a separate entry of the source. *1 amine or outer side, *2 acyl side, *3 side chain or, on linkers, in order; H or OH if unused. Where a SMILES comes first, the peptide text is derived from it. Bridges are numbered along the chain shown (N, C = ends). Roman numbers before positions name the chains, in order. [ ]: non-standard residue; d: D form. The star is where a group is joined. Actinocin(9to1) = Cc1c2oc3c(C)ccc(C(=O)[*:1])c3nc-2c(C(=O)[*:2])c(N)c1=O; NMeV = CN[C@H](C(=O)O)C(C)C; Cbz = O=C(OCc1ccccc1)*; Sar = CNCC(=O)O; CH2F = FC*", "data": [{"smiles": "Cc1c2oc3c(C)ccc(C(=O)N[C@@H]4C(=O)N[C@H](C(C)C)C(=O)N5CCC[C@H]5C(=O)N(C)CC(=O)N(C)[C@@H](C(C)C)C(=O)O[C@@H]4C)c3nc-2c(C(=O)N[C@@H]2C(=O)N[C@H](C(C)C)C(=O)N3CCC[C@H]3C(=O)N(C)CC(=O)N(C)[C@@H](C(C)C)C(=O)O[C@@H]2C)c(N)c1=O", "note": "[Act-D, actinomycin D] (I: T[dV]P[Sar][NMeV] / II: T[dV]P[Sar][NMeV]; ester I:1-I:C, II:1-II:C; linker I:N-II:N via Actinocin(9to1))", "values": [{"measurement": "cells apoptotic by CICR assay", "setting": "MEFs [1]; MEFs treated with Act-D for one day, CICR assay (QVD present)", "value": 13, "unit": "%"}, {"measurement": "cells dead or dying by CICR assay", "setting": "MEFs [1]; MEFs treated with Act-D, after 3 days, CICR assay (QVD present)", "value": 96, "unit": "%"}, {"measurement": "time at which Act-D begins killing cells by CICR assay", "setting": "MEFs [1]; MEFs, CICR assay", "value": "≤ 24", "unit": "h"}, {"measurement": "Diffuse cyt c (%)", "setting": "MEFs [1]; MEFs, Day 1", "value": 0.8, "unit": "%"}, {"measurement": "Diffuse cyt c (%)", "setting": "MEFs [1]; MEFs, Day 2", "value": 13.4, "unit": "%"}, {"measurement": "apoptotic morphology and detachment", "setting": "MEFs [2]", "value": "adopt characteristic apoptotic morphology and detach from the culture dish"}, {"measurement": "apoptotic morphology and detachment", "setting": "HMECs; Act-D 40 nM, 3 days", "value": "adopt characteristic apoptotic morphology and detach from the culture dish"}, {"measurement": "apoptotic morphology and detachment", "setting": "WI-38 fibroblasts; WI-38, Act-D 40 nM, 3 days", "value": "adopt characteristic apoptotic morphology and detach from the culture dish"}, {"measurement": "cells died by PI exclusion assay", "setting": "MEFs [3]; MEFs treated with Act-D, after 3 days", "value": 74, "unit": "%"}, {"measurement": "time after addition at which manifestations of apoptosis were apparent (propidium iodide exclusion)", "setting": "MEFs [3]; MEFs, Act-D", "value": "1 to 2", "unit": "days"}, {"measurement": "apoptosis detected by subG1 peak determination", "setting": "MEFs [4]; [7]", "value": "little or no apoptosis"}, {"measurement": "time after addition at which manifestations of apoptosis were apparent (sub-G1 DNA peak)", "setting": "MEFs [4]; MEFs, Act-D", "value": "1 to 2", "unit": "days"}, {"measurement": "apoptosis detected by loss of ΔΨm", "setting": "MEFs [5]; [7]", "value": "little or no apoptosis"}, {"measurement": "time after addition at which manifestations of apoptosis were apparent (reduction in ΔΨm)", "setting": "MEFs [5]; MEFs, Act-D", "value": "1 to 2", "unit": "days"}, {"measurement": "cells remaining on dish and cytochrome c staining", "setting": "HeLa cells", "value": "fewer cells are present on the culture dish"}]}, {"smiles": "CC(C)[C@H](NC(=O)c1ccc2ccccc2n1)C(=O)N[C@@H](CC(=O)O)C(=O)COc1c(F)cccc1F", "note": "[QVD, Quinoline-Val-Asp-Ch2-O-Ph]", "values": [{"measurement": "Diffuse cyt c (%)", "setting": "MEFs [1]; MEFs, Day 1", "value": 2.0, "unit": "%"}, {"measurement": "Diffuse cyt c (%)", "setting": "MEFs [1]; MEFs, Day 2", "value": 2.3, "unit": "%"}, {"measurement": "Diffuse cyt c (%)", "setting": "MEFs [1]; MEFs, Day 3", "value": 3.2, "unit": "%"}, {"measurement": "prevention of Act-D-induced cell detachment", "setting": "MEFs [2]; QVD 40 μM", "value": "preserves adhesion; also recorded: prevented most of the cell detachment"}, {"measurement": "detachment of cells in the presence of Act-D and caspase inhibitor", "setting": "HMECs", "value": "a small fraction detached"}, {"measurement": "attachment of Act-D treated cells with caspase inhibitor", "setting": "WI-38 fibroblasts", "value": "remained equally well attached"}, {"measurement": "effect on Act-D-induced loss of propidium iodide exclusion", "setting": "MEFs [3]; MEFs, Act-D, 40 μM QVD", "value": "substantially or completely reduced"}, {"measurement": "effect on Act-D-induced sub-G1 DNA peak", "setting": "MEFs [4]; MEFs, Act-D, 40 μM QVD", "value": "substantially or completely reduced"}, {"measurement": "effect on Act-D-induced reduction in ΔΨm", "setting": "MEFs [5]; MEFs, Act-D, 40 μM QVD", "value": "substantially or completely reduced"}, {"measurement": "effect on cell growth", "setting": "HCA-2 fibroblasts", "value": "does not inhibit growth"}, {"measurement": "effect on cell growth", "setting": "HMEC", "value": "does not inhibit growth"}, {"measurement": "dose with no toxicity / administered safely", "setting": "[6]; animal, data sheet of distributor MP Biomedicals", "value": "1 g/kg of body weight"}, {"measurement": "dose reported as safely used", "setting": "[6]; in vivo, Yang et al. 2004", "value": "20 mg/kg of body weight"}]}, {"smiles": "COC(=O)C[C@H](NC(=O)[C@H](C)NC(=O)[C@@H](NC(=O)OCc1ccccc1)C(C)C)C(=O)CF", "note": "[zVAD, benzyloxycarbonyl-Val-Ala-Asp-fluoromethylketone] (Cbz-Val-Ala-Asp(OMe)-CH2F)", "values": [{"measurement": "prevention of Act-D-induced cell detachment", "setting": "MEFs [2]; zVAD 100 μM", "value": "failed to prevent detachment"}, {"measurement": "detachment of cells in the presence of Act-D and caspase inhibitor", "setting": "HMECs", "value": "a larger fraction detached"}, {"measurement": "attachment of Act-D treated cells with caspase inhibitor", "setting": "WI-38 fibroblasts", "value": "remained equally well attached"}]}]}
